Measured values published in ChEMBL document CHEMBL4325923, “Analogues of the Lignan Pinoresinol as Novel Lead Compounds for P-glycoprotein (P-gp) Inhibitors” (ACS Med Chem Lett, 2018).
Calls of active or inactive are those of the source. The rule behind the calls is not given here.

Assays:
[1] = biological target: T1, ATP-dependent translocase ABCB1 (Homo sapiens, UniProt P08183); test: (§1) Inhibition of P-gp-mediated doxorubicin efflux in human Lucena 1 cells assessed as ratio of doxorubicin fluorescence intensity in presence of compound to doxorubicin fluorescence intensity in absence of compound at 25 uM preincubated for 1 hr followed by doxorubicin addition measured after 1 hr by flow cytometry; assay type: cell-based
T1 sequence (P08183 whole entry): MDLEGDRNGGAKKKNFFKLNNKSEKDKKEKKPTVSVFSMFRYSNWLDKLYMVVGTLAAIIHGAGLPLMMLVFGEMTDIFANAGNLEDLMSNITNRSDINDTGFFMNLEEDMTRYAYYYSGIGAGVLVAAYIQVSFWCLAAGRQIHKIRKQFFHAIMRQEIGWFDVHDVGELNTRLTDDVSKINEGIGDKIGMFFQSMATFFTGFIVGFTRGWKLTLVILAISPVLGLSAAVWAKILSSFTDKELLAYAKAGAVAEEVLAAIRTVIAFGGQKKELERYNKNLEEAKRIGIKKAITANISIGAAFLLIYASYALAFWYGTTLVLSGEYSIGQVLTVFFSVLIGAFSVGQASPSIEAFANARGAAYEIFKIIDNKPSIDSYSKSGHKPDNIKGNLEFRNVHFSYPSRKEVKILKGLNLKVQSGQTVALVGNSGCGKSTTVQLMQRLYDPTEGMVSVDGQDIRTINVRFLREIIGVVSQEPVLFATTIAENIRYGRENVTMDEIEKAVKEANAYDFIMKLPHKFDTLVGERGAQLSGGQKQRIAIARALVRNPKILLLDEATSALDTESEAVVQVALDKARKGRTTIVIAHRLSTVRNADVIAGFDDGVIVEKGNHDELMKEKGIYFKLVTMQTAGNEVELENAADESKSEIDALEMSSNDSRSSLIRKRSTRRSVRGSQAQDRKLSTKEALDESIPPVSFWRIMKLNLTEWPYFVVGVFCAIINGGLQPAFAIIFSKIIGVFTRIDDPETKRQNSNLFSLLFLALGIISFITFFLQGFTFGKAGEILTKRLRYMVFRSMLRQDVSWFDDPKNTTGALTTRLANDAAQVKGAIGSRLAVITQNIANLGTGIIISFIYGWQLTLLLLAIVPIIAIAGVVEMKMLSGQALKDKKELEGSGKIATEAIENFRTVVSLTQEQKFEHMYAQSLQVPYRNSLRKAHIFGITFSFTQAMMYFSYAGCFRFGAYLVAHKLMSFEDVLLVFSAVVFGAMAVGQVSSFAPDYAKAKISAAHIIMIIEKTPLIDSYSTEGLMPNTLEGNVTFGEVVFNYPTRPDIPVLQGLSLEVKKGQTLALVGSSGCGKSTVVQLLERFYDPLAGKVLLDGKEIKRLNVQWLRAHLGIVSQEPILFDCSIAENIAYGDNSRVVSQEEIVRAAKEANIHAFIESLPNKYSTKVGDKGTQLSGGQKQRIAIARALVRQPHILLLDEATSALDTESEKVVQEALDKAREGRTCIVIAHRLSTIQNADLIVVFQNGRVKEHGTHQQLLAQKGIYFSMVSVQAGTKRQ

[2] = biological target: T1, ATP-dependent translocase ABCB1; test: Inhibition of P-gp-mediated doxorubicin efflux in human Lucena 1 cells preincubated for 1 hr followed by doxorubicin addition measured after 1 hr by flow cytometry; assay type: cell-based
[3] = biological target: T1, ATP-dependent translocase ABCB1; test: as §1, with “6.25” for “25”; assay type: cell-based
[4] = biological target: T1, ATP-dependent translocase ABCB1; test: as §1, with “1.56” for “25”; assay type: cell-based
[5] = system: K562; test: Inhibition of doxorubicin efflux in human K562 cells at 25 uM preincubated for 1 hr followed by doxorubicin addition measured after 1 hr by flow cytometry; assay type: functional, cell-based
[6] = biological target: P-gp (ABCB1) (Homo sapiens, UniProt P08183); test: Stimulation of P-gp (unknown origin) ATPase activity at 10 uM relative to control; details: read-out: Activity
Sequence of P-gp (ABCB1) (P08183 whole entry): as above

[7] = biological target: T1, ATP-dependent translocase ABCB1; test: Inhibition of P-gp-mediated Rho-123 efflux in human Lucena 1 cells at […] preincubated for 1 hr followed by Rho-123 addition measured after 1 hr by flow cytometry; assay type: cell-based
[8] = system: PBMC; test: Cytotoxicity against human PBMC at 6.25 uM after 48 hrs by MTT assay; assay type: cell-based
[9] = biological target: T1, ATP-dependent translocase ABCB1; test: as §1, with “0.78” for “25”; assay type: cell-based
[10] = system: K562; assay type: functional, cell-based; details: Homo sapiens, 3.12 uM
[11] = system: PBMC; test: Cytotoxicity against human PBMC at 25 uM after 48 hrs by MTT assay relative to control; assay type: cell-based
[12] = biological target: T1, ATP-dependent translocase ABCB1; test: Inhibition of P-gp-mediated Rho-123 efflux in human Lucena 1 cells at 50 uM preincubated for 1 hr followed by Rho-123 addition measured after 1 hr by flow cytometry; assay type: cell-based
[13] = system: K562; test: Potentiation of doxorubicin-induced cytotoxicity in human K562 cells assessed as decrease in doxorubicin IC50 at 1.56 uM after 48 hrs by MTT assay; assay type: functional, cell-based
[14] = biological target: T1, ATP-dependent translocase ABCB1; test: as §1, with “0.39” for “25”; assay type: cell-based

Row | Structure (SMILES) | Ratio [1] | inhibition (INH) [2] | Ratio [3] | inhibition [5] | other results
1 | COc1ccc(-n2nc(C)c3c2NC(=O)C[C@@H]3c2ccc(O)c(OC)c2)cc1 | 1.11 |  |  |  | 
2 | CC/C(=C(/CC)c1ccc(OCCCCOC(C)=O)cc1)c1ccc(OCCCCOC(C)=O)cc1 | 1.18 | Dose-dependent effect | 1.09 | inactive | Ratio [4]: 1.01
3 | CC/C(=C(/CC)c1ccc(OCCCCS(=O)(=O)[O-])cc1)c1ccc(OCCCCS(=O)(=O)[O-])cc1.[Na+].[Na+] | 0.95 |  |  |  | 
4 | CC/C(=C(/CC)c1ccc(O)cc1)c1ccc(O)cc1 [DIETHYLSTILBESTROL] | 1.06 |  | 1.04 | inactive | activity at 10 µM [6]: 45%
5 | CC/C(=C(/CC)c1ccc(S(=O)(=O)[O-])cc1)c1ccc(S(=O)(=O)[O-])cc1.[Na+].[Na+] | 0.99 |  |  |  | 
6 | Cc1c(-c2ccc(O)c(O)c2)[nH]c2ccc(OCCO)cc12 | 1.01 |  |  |  | 
7 | COc1cc([C@@H]2CC(O)=Nc3c2cnn3Cc2cccs2)ccc1O | 0.96 |  |  |  | 
8 | COc1ccc2[nH]c(-c3ccc(OC)c(OC)c3)c(C)c2c1 | 0.9 |  |  |  | 
9 | CC/C(=C(/CC)c1ccc(OCCOS(=O)(=O)[O-])cc1)c1ccc(OCCOS(=O)(=O)[O-])cc1.[Na+].[Na+] | 1.04 |  |  |  | 
10 | Cc1c(-c2ccc(O)cc2)[nH]c2ccc(O)cc12 | 0.8 |  |  |  | 
11 | Cc1c(-c2ccc(O)c(O)c2)[nH]c2ccc(O)cc12 | 0.72 |  |  |  | 
12 | Cc1c(-c2ccc(O)c(O)c2)n(C)c2ccc(O)cc12 | 0.75 |  |  |  | 

The next lines start with results.

Row | Ratio [1] | inhibition (INH) [2] | Ratio [3] | Structure (SMILES) | inhibition [5] | other results
13 | 1.13 |  |  | CC/C(=C(\c1ccccc1)c1ccc(OCCN(C)C)cc1)c1ccccc1 [TAMOXIFEN] |  | INH [7]: Active
14 | 1.16 | Dose-dependent effect | 1.08 | CC/C(=C(/CC)c1ccc(OCCO)cc1)c1ccc(OCCO)cc1 | inactive | 
15 | 1.03 |  |  | CC/C(=C(/CC)c1ccc(OCCCS(=O)(=O)[O-])cc1)c1ccc(OCCCS(=O)(=O)[O-])cc1.[Na+].[Na+] |  | 
16 | 1.21 | Dose-dependent effect | 1.06 | CC/C(=C(/CC)c1ccc(OCCCOC(C)=O)cc1)c1ccc(OCCCOC(C)=O)cc1 | inactive | Ratio [4]: 1.02
17 | 1.23 | Dose-dependent effect | 1.09 | CC/C(=C(/CC)c1ccc(OCCCO)cc1)c1ccc(OCCCO)cc1 | inactive | Activity [8]: Non-Toxic; Ratio [9]: 0.98; Activity [10]: inactive; Activity [11]: 34.67%; Ratio [4]: 1.05; inhibition (INH) [12]: Active
18 | 1.21 | Dose-dependent effect | 1.12 | CC/C(=C(/CC)c1ccc(OCCOC(C)=O)cc1)c1ccc(OCCOC(C)=O)cc1 | inactive | Ratio [4]: 1.03
19 | 1.32 | Dose-dependent effect | 1.08 | CC/C(=C(/CC)c1ccc(OCCCCO)cc1)c1ccc(OCCCCO)cc1 | inactive | INH [7]: Active; Activity [8]: Non-Toxic; Activity [13]: inactive; Ratio [9]: 0.99; Ratio [14]: 1; Activity [11]: 41%; Ratio [4]: 1.1
20 | 1.19 | Dose-dependent effect | 1.09 | CC/C(=C(/CC)c1ccc(OC)cc1)c1ccc(OC)cc1 | inactive | 
